In patent US7550438B2, “Methods for production of growth-promoting proteins and peptides for kidney epithelial cells” (The University of Chicago, priority 1997, dated 2009):

Assays:
[1] = test system: monkey kidney epithelial cells of the BSC-1 line; assay: Growth-promoting (mitogenic) activity: number of cells in BSC-1 cultures counted four days after addition; type: cell-based, African green monkey
Experimental: For the assay, cells were detached from the dish with a solution of trypsin and an aliquot was counted in a hemocytometer.
Nontransformed monkey kidney epithelial cells of the BSC-1 line were grown to confluence in Dulbecco's modified Eagle's medium containing 1% calf serum and […] in 55-mm culture dishes at 38° C. in a CO2 incubator. When cells achieved a density of about 10^6 per dish, the spent medium was removed and replaced with fresh medium containing 0.5% calf serum and the 14-amino acid peptide (0.5 μg/ml). Additions of each of the mitogenic signals at maximal concentration were made to the culture medium. Four days later the number of cells in each culture was counted in a hemocytometer. Values obtained were the mean of 3 separate cultures.
Nontransformed monkey kidney epithelial cells of the BSC-1 line were grown to confluence in Dulbecco's modified Eagle's medium containing 1% calf serum and 1.6 μM biotin at 38° C. in a CO2 incubator. When cells achieved a density of about 10^6 per dish, the spent medium was removed and replaced with fresh medium containing 0.5% calf serum and different amounts of the two peptides. Four days later the number of cells in each culture was counted. Each value is the mean of 3 separate cultures.
To delineate the sequence of the smallest peptide that could stimulate renal cell growth, synthetic peptides of different lengths were prepared (see below), and purified by reversed-phase HPLC on a C18 column.
The peptide of interest was then purified on a reversed-phase C18 column HPLC as described herein using a gradient of 1-80% acetonitrile in 0.1% trifluroacetic acid (TFA). The purified peptide was then lyophilized to remove the acetonitrile and TFA and the lyophilized powder was weighed, dissolved in buffer and added to the culture medium to measure its effect on the growth of monkey kidney epithelial cells as described herein. […] A value termed the K1/2, was used.

[2] = test system: 3T3 fibroblasts; assay: Growth of 3T3 fibroblasts; type: cell-based, murine
[3] = Stability of growth-promoting activity to storage, enzyme, chemicals, heat and solvents; type: physicochemical
Source text: For the assay, cells were detached from the dish with a solution of trypsin and an aliquot was counted in a hemocytometer. […] Thus WGF stimulated cell proliferation by 30% in this assay. When high-density, quiescent cultures (3×10^6 cells/55-mm dish) were used to assay mitogenic activity by measuring [^3H]thymidine incorporation into DNA, WGF enhanced DNA synthesis about 60%. To prepare WGF, cells can be scrape-wounded every other day, yet maximal activity will be released into the conditioned medium. WGF is mitogenic for both sparse and confluent cultures of BSC-1 cells, and is stable upon storage at 4° C. to −40° C. for many weeks.
WGF activity was also stable in 0.1% trifluoroacetic acid (TFA) (J. T. Baker, HPLC grade) and isopropanol.

[4] = test system: BSC-1 cells; assay: Appearance or release of WGF growth-promoting activity from BSC-1 cells (scrape wounding, heparinase); type: cell-based, African green monkey; conditions: confluent monolayer treated with the enzyme
Experimental: None of these agents inhibited cell growth when added to cells of nonwounded cultures. When added to the medium after the appearance of WGF mitogenic activity, neither PMSF nor aprotinin appeared to inhibit the increment in cell proliferation.
Confluent monolayer cultures were mechanically scraped using a 200 μL pipet tip (Continental Laboratory Products, San Diego, Calif.). […] (This process of scraping the cells has been termed “wounding” and has been used for many years as a model system to study repair of corneal abrasions of the eye. In effect, pressure is applied to cells sufficient to disrupt intercellular adhesion). To determine whether kidney epithelial cells released an autocrine growth factor into the medium after wounding, conditioned culture medium was removed from the culture dish after scrape-wounding a monolayer of BSC-1 cells. An aliquot was assayed for any growth-promoting activity on a nonwounded “detector” culture (1.2×10^6 cells per […]).
Treatment of a confluent monolayer of BSC-1 cells with the enzyme heparinase I (Sigma), but not heparinase III (Sigma), releases WGF mitogenic activity from cells into the culture media. However, this seems to deplete WGF, at least temporarily. When cells are first treated with heparinase I, rinsed, the media aspirated, and the monolayer is then scrape-wounded, no growth-promoting activity is detected in the conditioned media.

For AQPYPQGNHEA, which “combined mitogenic effect with WGF (additivity)” value ([1]; maximal concentrations, 11-mer with wound conditioned buffer) is on record?
The value was “not additive”.

And the “mitogenic activity on BSC-1 cells (in words)” value ([1]; peptide 0.5 to 20 μg/ml, four days)?
The value was “to the same extent as did purified WGF protein”.

And the EC50 ([1]; peptide alone, BSC-1 cells, 4 days in culture, read-out: Growth-Stimulation K½)?
The EC50 was 260 nM.

And the “mitogenic activity on 3T3 fibroblasts” value [2]?
Its value is “did not stimulate growth”.

Which results are given for “basic fibroblast growth factor [basic FGF, reference compound]”?
concentration equivalent in mitogenic potency to partially-purified WGF [1]: 0.02 ng/mL; stimulation of growth (increase in cell number compared to control at four days) ([1]; agent alone at maximal mitogenic concentration (14-Ser 0.5 μg/ml; EGF, IGF-I 50 ng/ml; acidic FGF 100 pg/ml; basic FGF 1,000 pg/ml; vasopressin 75 pg/ml; K 10.4 mM; Na 180 mM)): 18%; stimulation of growth in the presence of the 14-Ser peptide ([1]; mitogenic signal at maximal concentration plus 14-Ser peptide 0.5 μg/ml, four days): 41%; inhibition of mitogenic activity by 55% acetonitrile/0.1% (TFA) [3]: 90%

B1: heparinase III: enzyme heparinase III (Sigma) (protein, UniProt Q59289 25-659, looked up)
Heparin-sulfate lyase: QSSSITRKDFDHINLEYSGLEKVNKAVAAGNYDDAAKALLAYYREKSKAREPDFSNAEKPADIRQPIDKVTREMADKALVHQFQPHKGYGYFDYGKDINWQMWPVKDNEVRWQLHRVKWWQAMALVYHATGDEKYAREWVYQYSDWARKNPLGLSQDNDKFVWRPLEVSDRVQSLPPTFSLFVNSPAFTPAFLMEFLNSYHQQADYLSTHYAEQGNHRLFEAQRNLFAGVSFPEFKDSPRWRQTGISVLNTEIKKQVYADGMQFELSPIYHVAAIDIFLKAYGSAKRVNLEKEFPQSYVQTVENMIMALISISLPDYNTPMFGDSWITDKNFRMAQFASWARVFPANQAIKYFATDGKQGKAPNFLSKALSNAGFYTFRSGWDKNATVMVLKASPPGEFHAQPDNGTFELFIKGRNFTPDAGVFVYSGDEAIMKLRNWYRQTRIHSTLTLDNQNMVITKARQNKWETGNNLDVLTYTNPSYPNLDHQRSVLFINKKYFLVIDRAIGEATGNLGVHWQLKEDSNPVFDKTKNRVYTTYRDGNNLMIQSLNADRTSLNEEEGKVSYVYNKELKRPAFVFEKPKKNAGTQNFVSIVYPYDGQKAPEISIRENKGNDFEKGKLNLTLTINGKQQLVLVP
With B1 as the molecule, how does the “release of WGF mitogenic activity from cells into the culture media” value [4] read?
The value was “not”.
